As usually defined, the inhibition is the relative decrease from the control value, in per cent.

Results on 26 compounds are retold here after patent US20100120810A1, “COMPOUNDS AND METHODS FOR MODULATING RHO GTPASES” (priority 2007, published 2010).

What all share (type): biochemical
For experiment [1], the target named is T1, Rac1 activated by DH/PH domain of Guanine nucleotide Exchange Factor Tiam1 (Rac1/Tiam1) (Homo sapiens, UniProt P63000).
T1 construct: made in house; host or cells: E. coli BL21 Codon+RIL
The experiment in a line: Nucleotide binding assay: BODIPY-GTP binding to Rac1 activated by Tiam1 DH/PH. To be noted: for inhibition at 50 µM: read-out: Rac1 % inhibition of BODIPY-GTP binding. The method, then: (§1) Fluorescence of GTP analog BODIPY-GTP increases when it binds to small G proteins. This property was used to assess ability of compounds to inhibit nucleotide binding to Rac1, Rac1b and Cdc42. 2 μM GST-Rac1 and 6 μg His6-Tiam1-DH/PH were diluted in a buffer containing 20 mM Tris, 50 mM NaCl, and 1 mM MgCl2. This mixture was loaded in a 96-well plate. Fluorescence recording were started (λEx: 485 nm; λEm: 538 nm) using a spectrofluorimeter (Fluoroskan; Thermolab Systems). Assay was initiated by the addition of 2 μM BODIPY-GTP with or without various doses of test compound. Fluorescence values were recorded, and data were processed as follows: background fluorescence (unbound BODIPY-GTP) was retrieved from fluorescence values.
(§2) This assay allows determining whether compounds can inhibit the binding of a fluorescent nucleotide to recombinant small G proteins of interest. The effect of various alkaloid compounds on binding of BODIPY-GTP to Rac1 activated by DH/PH domain of Guanine nucleotide Exchange Factor Tiam1 (Rac1/Tiam1), Rac1b and Cdc42 is described below.

The target in the next experiment is T2, Rac1b (Homo sapiens, UniProt P63000).
T2 construct: GST (N); made in house; host or cells: E. coli BL21 Codon+RIL
The experiment in a line: Nucleotide binding assay: BODIPY-GTP binding to Rac1b. Conditions: for inhibition at 50 µM: read-out: Rac1b % inhibition of BODIPY-GTP binding. The method, then: as §1, §2

The target in the next experiment is T3, Cdc42 (Homo sapiens, UniProt P60953).
T3 construct: GST (N); made in house; host or cells: E. coli BL21 Codon+RIL
T3 sequence (P60953 whole entry, species assumed): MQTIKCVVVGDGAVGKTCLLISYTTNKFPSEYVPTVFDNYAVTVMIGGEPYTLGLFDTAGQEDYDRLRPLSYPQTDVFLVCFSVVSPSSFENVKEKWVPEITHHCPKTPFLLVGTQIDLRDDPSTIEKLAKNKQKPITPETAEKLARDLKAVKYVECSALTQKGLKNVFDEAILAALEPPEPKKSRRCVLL
The experiment in a line: Nucleotide binding assay: BODIPY-GTP binding to Cdc42. Conditions: read-out: Cdc42 % inhibition of BODIPY-GTP binding. The method, then:
as §1, §2

The mark [2] stands for this setting: final concentration of 50 μM, Rac1/Tiam1.
Where [3] appears, read: dose-response study (1-2-5-10-25-50-75-100 μM).

Counter-ions that a name gives are not always drawn. Like-named read-outs stand apart in the source and are kept apart here.

For `COc1cc2cc(-c3ccc(C(=O)OC(C)C)cc3)nc(C)c2cc1OC` [Compound 32, Isopropyl 4-(6,7-dimethoxy-1-methylisoquinolin-3-yl)benzoate hydrochloride], the inhibition at 50 µM amounted to 4 ± 5% in experiment [1] (setting [2]), 10 ± 4% at Rac1b (final concentration of 50 μM) and 2 ± 1% on Cdc42 (final concentration of 50 μM).

Turning to `COc1cc2cc(-c3cccc(N(S(C)(=O)=O)S(C)(=O)=O)c3)nc(C)c2cc1OC` [Compound 29, N-(3-(6,7-Dimethoxy-1-methylisoquinolin-3-yl)phenyl)-N-(methylsulfonyl)methanesulfonamide hydrochloride], the inhibition at 50 µM was -5 ± 2% in experiment [1] (setting [2]), -2 ± 2% on Rac1b (final concentration of 50 μM) and 2 ± 4% at Cdc42 (final concentration of 50 μM).

As to `COc1cc2cc(-c3cccc(C(C)=O)c3)[n+](C)c(C)c2cc1OC` [Compound 25, 3-(3-Acetylphenyl)-6,7-dimethoxy-1,2-dimethylisoquinolinium chloride], the figures for the inhibition at 50 µM (in experiment [1] (setting [2]); on Rac1b (final concentration of 50 μM); at Cdc42 (final concentration of 50 μM)) were 20 ± 3%, 29 ± 3% and 7 ± 1%, respectively.

For the compound `Oc1cc2c(cc1O)-c1cc3ccc(O)c(O)c3c[n+]1CC2` [Compound 6, 5,6-dihydro-isoquino[3,2-a]isoquinolinylium-2,3,9,10-tetraol chloride], the inhibition at 50 µM on Cdc42 (final concentration of 50 μM) came out at 100%.

As to `COc1cc2cc(-c3ccc4c(c3)OCO4)nc(C)c2cc1OC` [Compound 21, 3-(Benzo[d][1,3]dioxol-5-yl)-6,7-dimethoxy-1-methylisoquinoline hydrochloride], the inhibition at 50 µM was 13 ± 2% in experiment [1] (setting [2]), 12 ± 2% at Rac1b (final concentration of 50 μM) and 18 ± 2% on Cdc42 (final concentration of 50 μM).

With `COc1cc2cc(-c3ccccc3NC(=O)N(C)C)nc(C)c2cc1OC` [Compound 46, 3-(2-(6,7-Dimethoxy-1-methylisoquinolin-3-yl)phenyl)-1,1-dimethylurea hydrochloride], the values for the inhibition at 50 µM (in experiment [1] (setting [2]); at Rac1b (final concentration of 50 μM); at Cdc42 (final concentration of 50 μM)) were 8 ± 3%, 9 ± 3% and 2%, respectively.

Consider `COc1cc2cc(-c3ccc(C)cc3)nc(C)c2cc1OC` [Compound 43, 6,7-Dimethoxy-1-methyl-3-p-tolylisoquinolinylium chloride], for which the figures for the inhibition at 50 µM (in experiment [1] (setting [2]); on Rac1b (final concentration of 50 μM); on Cdc42 (final concentration of 50 μM)) were 19 ± 1%, 17 ± 2% and 15 ± 2%, respectively.

For the compound `COc1cc2cc(-c3ccccc3N)nc(C)c2cc1OC` [Compound 37, 2-(6,7-Dimethoxy-1-methylisoquinolin-3-yl)aniline dihydrochloride], the inhibition at 50 µM in experiment [1] (setting [2]) was 10 ± 1%; on Rac1b (final concentration of 50 μM), 14 ± 2%; at Cdc42 (final concentration of 50 μM), 1 ± 13%.

As for `COc1ccc2cc3[n+](cc2c1OC)CCc1cc2c(cc1-3)OCO2` [Compound 1, Berberine chloride, reference compound], the “maximum inhibition on Rac1/Tiam1” value in experiment [1] (setting [3]) worked out at 19±1%. In addition, the inhibition at 50 µM is 15 ± 2% in experiment [1] (setting [2]), 23 ± 2% at Rac1b (final concentration of 50 μM) and 8 ± 2% at Cdc42 (final concentration of 50 μM). Also, the “maximum inhibition on Rac1b” value on Rac1b (setting [3]) came to 29±1%.

For the compound `COc1ccc2c(c1OC)CN1CCc3cc4c(cc3C1C2)OCO4` (racemic) [Compound 3, (±)-Canadine hydrochloride], the inhibition at 50 µM in experiment [1] is 1 ± 3%; at Rac1b it was -7 ± 4%.

Regarding `COc1ccc2c(c1OC)C[N+]1(Cc3ccccc3)CCc3cc4c(cc3C1C2)OCO4` (racemic) [Compound 5, (±)-7-benzyl-9,10-dimethoxy-5,8,13,13a-tetrahydro-6H-[1,3]dioxolo[4,5-g]isoquino[3,2-a]isoquinolinylium bromide], the inhibition at 50 µM in experiment [1] (setting [2]) was found to be 9 ± 2%; on Rac1b (final concentration of 50 μM), 16 ± 2%; at Cdc42 (final concentration of 50 μM) it was 3 ± 1%.

On to `COc1cc2cc(-c3ccc(Cl)c(Cl)c3)nc(C)c2cc1OC` [Compound 39, 3-(3,4-Dichlorophenyl)-6,7-dimethoxy-1-methylisoquinolinylium chloride], for which the inhibition at 50 µM in experiment [1] (setting [2]) was 17 ± 7%; at Rac1b (final concentration of 50 μM) it was 42 ± 7%; at Cdc42 (final concentration of 50 μM) it was 5 ± 1%.

Consider `COc1cc2cc(-c3ccccc3NC(C)=O)nc(C)c2cc1OC` [Compound 38, N-(2-(6,7-Dimethoxy-1-methylisoquinolin-3-yl)phenyl)acetamide], for which the inhibition at 50 µM in experiment [1] (setting [2]) stood at 1 ± 3%; at Rac1b (final concentration of 50 μM), 0%; on Cdc42 (final concentration of 50 μM), 3 ± 7%.

Turning to `COc1cc2cc(-c3ccc(O)c(O)c3)[n+](C)c(C)c2cc1OC` [Compound 27, 3-(3,4-Dihydroxyphenyl)-6,7-dimethoxy-1,2-dimethylisoquinolinium chloride], the inhibition at 50 µM came out at 6 ± 2% in experiment [1] (setting [2]), 17 ± 1% on Rac1b (final concentration of 50 μM) and 5 ± 2% on Cdc42 (final concentration of 50 μM).

Turning to `COc1ccc2c(c1OC)CN1CCc3cc(O)c(O)cc3C1C2` (racemic) [Compound 17, (±)-9,10-Dimethoxy-5,8,13,13a-tetrahydro-6H-isoquino[3,2-a]isoquinoline-2,3-diol hydrochloride], the inhibition at 50 µM is 5 ± 3% in experiment [1], -7 ± 4% at Rac1b and -13 ± 12% at Cdc42.

For the compound `COc1cc2cc(-c3ccccc3)nc(C)c2cc1OC` [Compound 44, 6,7-Dimethoxy-1-methyl-3-phenylisoquinolinylium chloride], the inhibition at 50 µM in experiment [1] (setting [2]) came out at 10 ± 3%; on Rac1b (final concentration of 50 μM), 8 ± 3%; at Cdc42 (final concentration of 50 μM) it was 10 ± 1%.

In the case of `COc1ccc2c(c1OC)C(Cc1ccccc1)N1CCc3cc4c(cc3C1C2)OCO4` (racemic) [Compound 12, (±)-8-Benzyl-9,10-dimethoxy-5,8,13,13a-tetrahydro-6H-[1,3]dioxolo[4,5-g]isoquino[3,2-a]isoquinoline hydrochloride], the inhibition at 50 µM in experiment [1] (setting [2]) is 23 ± 3%; on Rac1b (final concentration of 50 μM), 31 ± 4%; on Cdc42 (final concentration of 50 μM), 9 ± 2%.

As for `COc1ccc2c(c1OC)C(c1ccccc1)N1CCc3cc4c(cc3C1=C2)OCO4` (centres unmarked) [Compound 10, 9,10-dimethoxy-8-phenyl-5,8-dihydro-2H-6H-[1,3]dioxolo[4,5-g]isoquino[3,2-a]isoquinoline], the values for the inhibition at 50 µM (in experiment [1] (setting [2]); at Rac1b (final concentration of 50 μM); at Cdc42 (final concentration of 50 μM)) were 18 ± 2%, 27 ± 2% and 17%, respectively.

Take `COc1cc2cnc(-c3ccccc3)cc2cc1OC` [Compound 49, 6,7-Dimethoxy-3-phenylisoquinolinium chloride]: the inhibition at 50 µM is 1 ± 5% in experiment [1] (setting [2]), 2 ± 4% at Rac1b (final concentration of 50 μM) and 2 ± 6% on Cdc42 (final concentration of 50 μM).

As to `CNC(=O)c1ccc(-c2cc3cc(OC)c(OC)cc3c(C)n2)cc1` [Compound 34, 4-(6,7-Dimethoxy-1-methylisoquinolin-3-yl)-N-methylbenzamide], the inhibition at 50 µM in experiment [1] (setting [2]) is -2 ± 3%; at Rac1b (final concentration of 50 μM) it was 3 ± 3%; at Cdc42 (final concentration of 50 μM), 3 ± 5%.

`COc1cc2cc3c4cc(OC)c(OC)cc4cc[n+]3c(C)c2cc1OC` [Compound 8, 8-methyl-2,3,10,11-tetramethoxydibenzo[a,g]quinolizinium chloride, hydrate, reference compound]: the inhibition at 50 µM in experiment [1] is 36 ± 4%; on Rac1b, 44 ± 4%; at Cdc42 it was 21 ± 2%.

With `COc1cc2cc(-c3cccc(NC(C)=O)c3)nc(C)c2cc1OC` [Compound 31, N-(3-(6,7-Dimethoxy-1-methylisoquinolin-3-yl)phenyl)acetamide hydrochloride], the results for the inhibition at 50 µM (in experiment [1] (setting [2]); at Rac1b (final concentration of 50 μM); on Cdc42 (final concentration of 50 μM)) were -1 ± 2%, 10 ± 3% and 10 ± 1%, respectively.

Turning to `COc1cc2cc(-c3ccc(Cl)cc3)nc(C)c2cc1OC` [Compound 42, 3-(4-Chlorophenyl)-6,7-dimethoxy-1-methylisoquinolinylium chloride], the inhibition at 50 µM amounted to 18 ± 3% in experiment [1] (setting [2]), 17 ± 3% on Rac1b (final concentration of 50 μM) and 11 ± 2% at Cdc42 (final concentration of 50 μM).

Regarding `Cc1c2cc(O)c(O)cc2cc(-c2ccc(O)c(O)c2)[n+]1C` [Compound 45, 3-(3,4-Dihydroxyphenyl)-6,7-dihydroxy-1,2-dimethylisoquinolinium chloride], the figures for the inhibition at 50 µM (in experiment [1] (setting [2]); at Rac1b (final concentration of 50 μM); at Cdc42 (final concentration of 50 μM)) were 22 ± 1%, 36 ± 4% and 12 ± 1%, respectively.

As for `COc1cc2c(cc1OC)CN(Cc1cccc(O)c1O)CC2` [Compound 18, 2-(2,3-Dihydroxybenzyl)-6,7-dimethoxy-1,2,3,4-tetrahydroisoquinolinium chloride], the figures for the inhibition at 50 µM (in experiment [1] (setting [2]); at Rac1b (final concentration of 50 μM); at Cdc42 (final concentration of 50 μM)) were 1 ± 2%, 4 ± 3% and -8 ± 10%, respectively.

Take `COc1cc2c(cc1OC)-c1cc3ccc(OC)c(OC)c3c[n+]1CC2` [Compound 2, palmatine chloride, hydrate, reference compound]: the inhibition at 50 µM was found to be 15 ± 2% in experiment [1], 19 ± 3% on Rac1b and 11 ± 2% on Cdc42 (final concentration of 50 μM).
